Results as given in US20100069317A1, “CRYSTALLINE NEMORUBICIN HYDROCHLORIDE” (NERVIANO MEDICAL SCIENCES S.R.L., priority 2006, published 2010).

Assays:
[1] = Hygroscopicity, dynamic water vapour sorption (DVS 1000); format: physicochemical; details: for Change In Mass (%): 25° C.; for hygroscopicity (in words): when exposed to humidity
Method: Hygroscopicity tests were performed by means of a DVS 1000 apparatus (SMS) allowing dynamic water vapour sorption analysis. Multiple sorption/desorption cycles between 0% and 90% RH were performed at 25° C.
The equipment is a “controlled atmosphere microbalance” where the weighed sample is exposed to controlled variations of the relative humidity (RH) at a constant temperature.

[2] = system: liver metastases from M5076 murine fibrosarcoma; details: oral administration; cited from earlier work
[3] = system: tumor cells resistant to alkylating agents or topoisomerase II inhibitors; details: cells resistant to alkylating agents (melphalan, cisplatin) or topoisomerase II inhibitors (etoposide); cited from earlier work
[4] = in the presence of mouse, rat and human liver microsomes; cited from earlier work
[5] = system: experimental tumors (animal models); details: cited from earlier work

SMILES: COc1cccc2c1C(=O)c1c(O)c3c(c(O)c1C2=O)C[C@@](O)(C(=O)CO)C[C@@H]3O[C@H]1C[C@H](N2CCO[C@H](OC)C2)[C@H](O)[C@H](C)O1.Cl [Form A, nemorubicin hydrochloride dihydrate]
- Change In Mass (%) ([1]; Relative Humidity 0.0%): 0.00%
- Change In Mass (%) ([1]; Relative Humidity 3.1%, hydrochloride dihydrate): 1.92%
- Change In Mass (%) ([1]; Relative Humidity 6.2%, hydrochloride dihydrate): 3.53%
- Change In Mass (%) ([1]; Relative Humidity 9.3%, hydrochloride dihydrate): 3.82%
- Change In Mass (%) ([1]; Relative Humidity 12.4%, hydrochloride dihydrate): 4.02%
- Change In Mass (%) ([1]; Relative Humidity 15.5%, hydrochloride dihydrate): 4.17%
- Change In Mass (%) ([1]; Relative Humidity 18.6%, hydrochloride dihydrate): 4.29%
- Change In Mass (%) ([1]; Relative Humidity 21.7%, hydrochloride dihydrate): 4.39%
- Change In Mass (%) ([1]; Relative Humidity 24.8%, hydrochloride dihydrate): 4.49%
- Change In Mass (%) ([1]; Relative Humidity 27.9%, hydrochloride dihydrate): 4.57%
- Change In Mass (%) ([1]; Relative Humidity 31.0%, hydrochloride dihydrate): 4.65%
- Change In Mass (%) ([1]; Relative Humidity 34.1%, hydrochloride dihydrate): 4.71%
- Change In Mass (%) ([1]; Relative Humidity 37.2%, hydrochloride dihydrate): 4.77%
- Change In Mass (%) ([1]; Relative Humidity 40.3%, hydrochloride dihydrate): 4.82%
- Change In Mass (%) ([1]; Relative Humidity 43.5%, hydrochloride dihydrate): 4.86%
- Change In Mass (%) ([1]; Relative Humidity 46.6%, hydrochloride dihydrate): 4.91%
- Change In Mass (%) ([1]; Relative Humidity 49.7%, hydrochloride dihydrate): 4.95%
- Change In Mass (%) ([1]; Relative Humidity 52.8%, hydrochloride dihydrate): 5.01%
- Change In Mass (%) ([1]; Relative Humidity 55.9%, hydrochloride dihydrate): 5.07%
- Change In Mass (%) ([1]; Relative Humidity 59.0%, hydrochloride dihydrate): 5.13%
- Change In Mass (%) ([1]; Relative Humidity 62.1%, hydrochloride dihydrate): 5.19%
- Change In Mass (%) ([1]; Relative Humidity 65.2%, hydrochloride dihydrate): 5.25%
- Change In Mass (%) ([1]; Relative Humidity 68.3%, hydrochloride dihydrate): 5.31%
- Change In Mass (%) ([1]; Relative Humidity 71.4%, hydrochloride dihydrate): 5.38%
- Change In Mass (%) ([1]; Relative Humidity 74.5%, hydrochloride dihydrate): 5.46%
- Change In Mass (%) ([1]; Relative Humidity 77.6%, hydrochloride dihydrate): 5.52%
- Change In Mass (%) ([1]; Relative Humidity 80.7%, hydrochloride dihydrate): 5.58%
- Change In Mass (%) ([1]; Relative Humidity 83.8%, hydrochloride dihydrate): 5.66%
- Change In Mass (%) ([1]; Relative Humidity 86.9%, hydrochloride dihydrate): 5.75%
- Change In Mass (%) ([1]; Relative Humidity 90.0%, hydrochloride dihydrate): 5.85%
- RH at which the two moles of water lost on desorption are re-adsorbed ([1]; after a desorption cycle): 30%
- change in mass ([1]; at about 55% RH): about 5%
- hygroscopicity (in words) ([1]; hydrochloride dihydrate): non hygroscopic

SMILES: COc1cccc2c1C(=O)c1c(O)c3c(c(O)c1C2=O)C[C@@](O)(C(=O)CO)C[C@@H]3O[C@H]1C[C@H](N2CCO[C@H](OC)C2)[C@H](O)[C@H](C)O1 [nemorubicin, 3′ des amino-3′ [2(S)methoxy-4-morpholinyl] doxorubicin]
- survival time (best result) [2]: doubling of survival time
- cross-resistance [3]: no cross-resistance was observed
- cytotoxic activity in vitro [4]: increased
- optimal i.v. dose, fold less than that of doxorubicin ([5]; i.v., in vivo): at least 80 fold
- oral doses giving antitumor activity comparable to i.v., fold higher than the effective i.v. doses ([5]; oral vs i.v., all the animal models examined): 1.3-2 fold

SMILES: COc1cccc2c1C(=O)c1c(O)c3c(c(O)c1C2=O)C[C@@](O)(C(=O)CO)C[C@@H]3O[C@H]1C[C@H](N2CCO[C@H](OC)C2)[C@H](O)[C@H](C)O1.Cl [Amorphous, (8S-cis,2″S)-7,8,9,10-tetrahydro-6,8,11-trihydroxy-8-(hydroxyacetyl)-1-methoxy-10-{[2,3,6-trideoxy-3-(2-methoxy-4-morpholinyl)-α-L-lyxo-hexopyranosyl]oxy}-5,12-naphthacenedione hydrochloride]
- Change In Mass (%) ([1]; Relative Humidity 3.1%, hydrochloride): 0.30%
- Change In Mass (%) ([1]; Relative Humidity 6.2%, hydrochloride): 0.83%
- Change In Mass (%) ([1]; Relative Humidity 9.3%, hydrochloride): 1.35%
- Change In Mass (%) ([1]; Relative Humidity 12.4%, hydrochloride): 1.93%
- Change In Mass (%) ([1]; Relative Humidity 15.5%, hydrochloride): 2.45%
- Change In Mass (%) ([1]; Relative Humidity 18.6%, hydrochloride): 2.92%
- Change In Mass (%) ([1]; Relative Humidity 21.7%, hydrochloride): 3.37%
- Change In Mass (%) ([1]; Relative Humidity 24.8%, hydrochloride): 3.79%
- Change In Mass (%) ([1]; Relative Humidity 27.9%, hydrochloride): 4.19%
- Change In Mass (%) ([1]; Relative Humidity 31.0%, hydrochloride): 4.62%
- Change In Mass (%) ([1]; Relative Humidity 34.1%, hydrochloride): 5.08%
- Change In Mass (%) ([1]; Relative Humidity 37.2%, hydrochloride): 5.52%
- Change In Mass (%) ([1]; Relative Humidity 40.3%, hydrochloride): 5.96%
- Change In Mass (%) ([1]; Relative Humidity 43.5%, hydrochloride): 6.43%
- Change In Mass (%) ([1]; Relative Humidity 46.6%, hydrochloride): 6.90%
- Change In Mass (%) ([1]; Relative Humidity 49.7%, hydrochloride): 7.37%
- Change In Mass (%) ([1]; Relative Humidity 52.8%, hydrochloride): 7.88%
- Change In Mass (%) ([1]; Relative Humidity 55.9%, hydrochloride): 8.36%
- Change In Mass (%) ([1]; Relative Humidity 59.0%, hydrochloride): 8.92%
- Change In Mass (%) ([1]; Relative Humidity 62.1%, hydrochloride): 9.46%
- Change In Mass (%) ([1]; Relative Humidity 65.2%, hydrochloride): 10.10%
- Change In Mass (%) ([1]; Relative Humidity 68.3%, hydrochloride): 10.85%
- Change In Mass (%) ([1]; Relative Humidity 71.4%, hydrochloride): 11.69%
- Change In Mass (%) ([1]; Relative Humidity 74.5%, hydrochloride): 12.67%
- Change In Mass (%) ([1]; Relative Humidity 77.6%, hydrochloride): 14.01%
- Change In Mass (%) ([1]; Relative Humidity 80.7%, hydrochloride): 15.76%
- Change In Mass (%) ([1]; Relative Humidity 83.8%, hydrochloride): 18.09%
- Change In Mass (%) ([1]; Relative Humidity 86.9%): 21.51%
- Change In Mass (%) ([1]; Relative Humidity 90.0%, hydrochloride): 26.66%
- hygroscopicity (in words) ([1]; listed as nemorubicin amorphous, hydrochloride): highly hygroscopic
